The record followed here is ChEMBL document CHEMBL6127124, “Structure-Activity Relationships and Discovery of (S)-5-(tert-Butyl)-11-(difluoromethoxy)-9-methoxy-2-oxo-1,2,5,6-tetrahydropyrido[2',1':2,3]imidazo[4,5-h]quinoline-3-carboxylic Acid (AB-161), a Novel Orally Available and Liver-Centric HBV RNA Destabilizer” (J Med Chem, 2024).

For orientation: CC50 means the concentration that lowers cell viability or growth by half. Usually EC50 stands for the midpoint of the concentration-response curve. One may read the EC90 as the concentration needed for an effect of 90%. A word on the AUC(0-t): it is exposure summed from dosing to a finite time, without extrapolation to infinity. A high value points to more exposure. The term Kp denotes tissue or fluid exposure divided by exposure in the circulation. For orientation: bioavailability means dose-corrected exposure relative to a reference, in per cent.

Bounds are passed on as bounds.

Series [1] in a line: Cytotoxicity in human HepG2.2.15 cells by Cell Titer-Glo assay. It counts as toxicity, cell-based, HepG2 2.2.15. In general terms: ATP-based viability assays read luminescence as a measure of living cells.
Series [2] is described as follows: Chemical stability of compound in PBS assessed as compound remaining measured after 6 days by HPLC UV analysis. It counts as physicochemical. Particulars: buffer, 144 h; time 6 day.
Series [3] has as its system Hepatitis B virus. Nature of the series: Antiviral activity against HBV infected in human HepG2.2.15 cells assessed as reduction in HBsAg level incubated for 6 days with media and compound replenishment on third day by CLIA. It counts as functional, organism-based. Particulars: HepG2.2.15, 144 h; for EC90: time 6 day.
The nature of series [4]: Selectivity ratio of drug concentration in liver in CD-1 mouse at 10 mg/kg, po measured for 12 hrs to EC90 for antiviral activity against HBV infected in human HepG2.2.15 cells assessed as reduction in HBsAg level. Particulars: in vivo. It counts as ADME, organism-based.
Series [5] can be described thus: AUC (0 to 24 hrs) in CD-1 mouse at 0.2 mg/kg, po measured for 24 hrs by LC-MS/MS analysis. The series is classed as ADME, organism-based. Particulars: in vivo.
Series [6] in a line: Selectivity ratio of drug concentration in liver in CD-1 mouse at 0.2 mg/kg, po measured for 24 hrs to EC90 for antiviral activity against HBV infected in human HepG2.2.15 cells assessed as reduction in HBsAg level. The series is classed as ADME, organism-based. Particulars: in vivo.
A short description of series [7]: Ratio of total drug concentration in liver to plasma in CD-1 mouse at 0.2 mg/kg, po measured for 24 hrs by LC-MS/MS analysis. The series is classed as ADME, organism-based. Particulars: for Ratio: mouse, in vivo, po, 0.2 mg/kg, 24 h, BLD = below limit of detection.
A short description of series [8]: Ratio of total drug concentration in liver to plasma in CD-1 mouse at 10 mg/kg, po measured for 12 hrs by LC-MS/MS analysis. It counts as ADME, organism-based. Particulars: liver and plasma.
Series [9] in a line: Selectivity ratio of drug concentration in liver in CD-1 mouse at 10 mg/kg, po measured for 24 hrs to EC90 for antiviral activity against HBV infected in human HepG2.2.15 cells assessed as reduction in HBsAg level. It counts as ADME, organism-based. Particulars: in vivo.
A short description of series [10]: Selectivity ratio of drug concentration in liver in CD-1 mouse at 0.2 mg/kg, po measured for 12 hrs to EC90 for antiviral activity against HBV infected in human HepG2.2.15 cells assessed as reduction in HBsAg level. It counts as ADME, organism-based. Particulars: in vivo.
A short description of series [11]: Metabolic stability in human liver microsomes assessed as clearance at 0.3 uM preincubated for 5 mins followed by NADPH addition measured upto 60 mins by LC-MS/MS analysis. The series is classed as ADME, Microsome. Particulars: time < 65 min, read-out: CLH. (In general: Liver microsomes are vesicles of endoplasmic reticulum, rich in cytochrome P450 enzymes.)
Series [12] is described as follows: AUC (0 to 24 hrs) in CD-1 mouse at 10 mg/kg, po measured for 24 hrs by LC-MS/MS analysis. The series is classed as ADME, organism-based. Particulars: in vivo.
A short description of series [13]: Metabolic stability in CD-1 mouse liver microsomes assessed as clearance at 0.3 uM preincubated for 5 mins followed by NADPH addition measured upto 60 mins by LC-MS/MS analysis. It counts as ADME, Microsome. Particulars: time < 65 min, read-out: CLH.
A short description of series [14]: Ratio of total drug concentration in liver to plasma in CD-1 mouse at 10 mg/kg, po measured for 24 hrs by LC-MS/MS analysis. The series is classed as ADME, organism-based. Particulars: for Kp at 24 h: CD-1, mouse, liver and plasma.
Series [15] in a line: Metabolic stability in Sprague-Dawley rat liver microsomes assessed as clearance at 0.3 uM preincubated for 5 mins followed by NADPH addition measured upto 60 mins by LC-MS/MS analysis. The series is classed as ADME, Microsome. Particulars: time < 65 min, read-out: CLH.
Series [16] can be described thus: Ratio of total drug concentration in liver to plasma in CD-1 mouse at 0.2 mg/kg, po measured for 12 hrs by LC-MS/MS analysis. Particulars: liver and plasma. The series is classed as ADME, organism-based.
Series [17] can be described thus: Oral bioavailability in CD-1 mouse at 10 mg/kg measured for 24 hrs by LC-MS/MS analysis. The series is classed as ADME, organism-based. Particulars: in vivo.
The test system of series [18] is Hepatitis B virus. Nature of the series: Antiviral activity against HBV genotype D in immuno-competent C57BL/6 mouse model of chronic HBV assessed as log10 reduction in HBsAg production at 3 mg/kg, po qd for 7 days measured 24 hrs post-last dose by EIA relative to control. The series is classed as functional. Particulars: time 8 day.
Series [19] in a line: AUC (0 to 24 hrs) in Sprague-Dawley rat at 5 mg/kg, po measured for 24 hrs by LC-MS/MS analysis. Particulars: in vivo. It counts as ADME, organism-based.
The subject of series [20] is Hepatitis B virus. Nature of the series: Antiviral activity against HBV genotype D in immuno-competent C57BL/6 mouse model of chronic HBV assessed as log10 reduction in HBsAg production at 10 mg/kg, po qd for 7 days measured 24 hrs post-last dose by EIA relative to control. The series is classed as functional. Particulars: time 8 day.
Series [21] in a line: Selectivity ratio of drug concentration in liver in Sprague-Dawley rat at 5 mg/kg, po measured for 24 hrs to EC90 for antiviral activity against HBV infected in human HepG2.2.15 cells assessed as reduction in HBsAg level. It counts as ADME, organism-based. Particulars: in vivo.
A short description of series [22]: Oral bioavailability in Sprague-Dawley rat at 5 mg/kg measured for 24 hrs by LC-MS/MS analysis. Particulars: in vivo. It counts as ADME, organism-based.
The nature of series [23]: Ratio of total drug concentration in liver to plasma in Sprague-Dawley rat at 5 mg/kg, po measured for 24 hrs by LC-MS/MS analysis. The series is classed as ADME, organism-based. Particulars: other tissue.
The test system of series [24] is Hepatitis B virus. Nature of the series: Antiviral activity against HBV genotype D in immuno-competent C57BL/6 mouse model of chronic HBV assessed as log10 reduction in HBsAg production at 3 mg/kg, po qd for 7 days measured 24 hrs post-last dose by EIA (reference value: 0.67). The series is classed as functional. Particulars: time 8 day.
Series [25] relates to Hepatitis B virus. Nature of the series: Antiviral activity against HBV genotype D in immuno-competent C57BL/6 mouse model of chronic HBV assessed as log10 reduction in HBsAg production at 10 mg/kg, po qd for 7 days measured 24 hrs post-last dose by EIA (reference value: 0.98). Particulars: time 8 day. It counts as functional.

Consider `CC(C)(C)C1Cc2c(cc(OC(F)F)c3ncccc23)-c2[nH]c(=O)c(C(=O)O)c(O)c21` (stereo unspecified), for which, in [1], the CC50 stood at 48000 nM. For the same molecule, in [2], the Stability result is recorded as “Unstable”. Moreover, in the series with Hepatitis B virus [3], the EC50 was found to be 0.3 nM and the EC90 worked out at 2.4 nM.
With `Cn1c2c(cc(C(=O)O)c1=O)[C@H](C(C)(C)C)Cc1c-2nc2c(C(F)(F)F)cc(Cl)cn12`, the Ratio in [4] is on record as 2002; in series [6] (BLD = below limit of detection) it was “Bld”; in series [7], “Bld”; in series [9] (BLD = below limit of detection), “Bld”; in series [10], 22; in series [14] (mouse, in vivo, po, 10 mg/kg, 24 h, BLD = below limit of detection) it was “Bld”. Further, the figures for the AUC(0-t) at 24 h in series [5] and in [12] were 17 ng·h/mL and 786 ng·h/mL, respectively. The CC50 in series [1] worked out at 15000 nM. Also, the Kp at 12 h in [8] stood at 43; in [16] it was 24. For the same molecule, the values for the microsomal CLint at 0.3 µM in [11], in [13] and in series [15] were 7 µL/min/mg, 1 µL/min/mg and 2 µL/min/mg, respectively. The half-maximal effective concentration (EC50) with Hepatitis B virus [3] stood at 0.24 nM. In addition, in the series with Hepatitis B virus [3], the EC90 was found to be 2.5 nM.
For the molecule `COCCCOc1cc2c(nc1OC)-c1[nH]c(=O)c(C(=O)O)c(O)c1[C@H](C(C)(C)C)C2`, the CC50 in series [1] worked out at 26000 nM. Also, the bioavailability in series [17] was 93%. For the same molecule, the Ratio in series [9] is on record as 4.6. Moreover, the microsomal CLint at 0.3 µM in series [11] came out at 57 µL/min/mg. For the same molecule, in series [2], the Stability entry is “Unstable”. Moreover, the AUC(0-t) at 24 h in series [12] is 4940 ng·h/mL. The microsomal CLint at 0.3 µM in series [13] turned out to be 12 µL/min/mg. Further, in series [14], the Kp at 24 h is 1.3. In addition, in the series on Hepatitis B virus [3], the EC50 turned out to be 1.1 nM and the EC90 stood at 13 nM.
As to `CC(C)(C)[C@@H]1Cc2c(nc3c(OC(F)F)cccn23)-c2[nH]c(=O)c(C(=O)O)c(O)c21`, the “log(activity)” value was determined as 0.32 in the series on Hepatitis B virus [18] and 0.52 in the series with Hepatitis B virus [20]. Besides, half-maximal cytotoxicity in [1] (CC50) was put at 36000 nM. Further, the figures for the bioavailability in series [17] and in [22] were 27% and 16%, respectively. Besides, the AUC(0-t) at 24 h in series [19] is 209 ng·h/mL; in [12], 989 ng·h/mL. Also, the Ratio stood at 92 in series [9], 1008 in [21] and 4397 in [23]. Also, the microsomal CLint at 0.3 µM in [11] is 6 µL/min/mg; in [13], 64 µL/min/mg; in series [15], 279 µL/min/mg. In [2], the Stability entry is listed as “Unstable”. Moreover, the Kp at 24 h in [14] was found to be 308. Moreover, the EC50 in the series with Hepatitis B virus [3] came to 1.5 nM. Moreover, the EC90 in the series with Hepatitis B virus [3] amounted to 14 nM.
As for `COc1ccn2c3c(nc2c1OC(F)F)-c1[nH]c(=O)c(C(=O)O)cc1[C@H](C(C)(C)C)C3`, the Ratio was 69 in series [4]; “Bld” in [6] (BLD = below limit of detection); “Bld” in series [7]; 1 in series [9]; 3 in series [10]. Moreover, the AUC(0-t) at 24 h in series [5] came to 44 ng·h/mL; in series [12], 2690 ng·h/mL. For the same molecule, the CC50 in series [1] was above 50000 nM. The values for the Kp at 12 h in [8] and in series [16] were 24 and 22, respectively. For the same molecule, the results for the microsomal CLint at 0.3 µM in series [11], in series [13] and in series [15] were 4 µL/min/mg, 3 µL/min/mg and 5 µL/min/mg, respectively. Besides, in [14], the Kp at 24 h was determined as 19. In addition, the EC50 in the series with Hepatitis B virus [3] came to 3.5 nM. Further, in the series on Hepatitis B virus [3], the EC90 stood at 49 nM.
In the case of `CC(C)(C)[C@@H]1Cc2c(nc3c(OC(F)F)cc(F)cn23)-c2[nH]c(=O)c(C(=O)O)cc21`, the Ratio in series [4] was 1080; in series [6] it was 7; in series [9], 203; in [10], 25. Also, the results for the AUC(0-t) at 24 h in series [5] and in series [12] were 67 ng·h/mL and 2740 ng·h/mL, respectively. The molecule further displayed a CC50 in series [1] above 50000 nM. The partition ratio (Kp) at 24 h was 101 in series [7] (CD-1, mouse, liver and plasma); 194 in [14]. Also, the Kp at 12 h was 105 in series [8] and 176 in series [16]. Also, the “log(activity)” value in the series on Hepatitis B virus [24] is recorded as 0.16; with Hepatitis B virus [25], 0.37. In addition, the microsomal CLint at 0.3 µM was determined as 1 µL/min/mg in [11], 3 µL/min/mg in [13] and 4 µL/min/mg in series [15]. Moreover, the EC50 in the series on Hepatitis B virus [3] was 3.7 nM. The EC90 in the series with Hepatitis B virus [3] is 54 nM.
